Values quoted from earlier work as cited in publication PMC10017685 (Nature Communications, 2023).
Where two headings read alike, the source gives them in different places.

Test system: human erythrocytes
Design: method as in DBAASP
Details: cited from earlier work
[1] = toxicity class label 1 or 0, meaning of the labels not given, DBAASP HC50 data, human erythrocytes, ref DBAASP

Sequence	Class (dedicated toxicity dataset used for toxicity classifier evaluation) [1]	Class (dedicated toxicity dataset used for toxicity classifier evaluation)
ALWKTLLKKVLKAAA [DBAASP_7356]	1	
FLSLIPKIAGGIAALAKHL [DBAASP_10835]	1	
VKWRWKWKWRWKWKWKV [DBAASP_8777]	0	
ALHKTMLKKLGTMAL [DBAASP_10090]	0	
RQIRIWFQNRRMRWRR [DBAASP_8798]	0	
IAKIAGKIAKIAGKIA [DBAASP_14991]	0	
FFHHIFRGVVHVGKTIHRLVTG [DBAASP_9007]	0	
FIHHIIGGLFSVGKHIHSLIHGH [DBAASP_12673]	1	
ILPIRSLIKKLL [DBAASP_5721]	0	
FFGWLIKGAIHAGKAIHGLIHRRRH [DBAASP_3173]	1	
FLSLIPKIISAISALINHF [DBAASP_12629]	1	
KIKWILKYWKWS [DBAASP_10700]	0	
VKWRWKKWRWKWKWKV [DBAASP_8776]	0	
CVKVRVKVGSGVKVRVKVC [DBAASP_349]	0	
GLVGTLLGHIGKAILS [DBAASP_5370]	0	
GLLKLIKTLL [DBAASP_3136]	1	
GLKALKKVFKGIHKAIKLINKHVQ [DBAASP_6931]	0	
NILNTIINLAKKIL [DBAASP_3562]	0	
GIMSSLMKKLAAHIAK [DBAASP_8893]	0	
FFFFKKKKK [DBAASP_15834]	1	
FFPIIAGMAAKLIPSLFCKITKKC [DBAASP_4209]	1	
RRWYRRWYRRWY [DBAASP_17315]	0	
IAKIAGKIAKIAGKIAKIAGKIA [DBAASP_14994]	1	
ILPILSLIGGLL [DBAASP_3346]	0	
SKVGRHLRRFGHRAHRKL [DBAASP_7663]	0	

Sequence	Class (dedicated toxicity dataset used for toxicity classifier evaluation) [1]	Class (dedicated toxicity dataset used for toxicity classifier evaluation)
GWKKWLRKGAKHLGQAAIK [DBAASP_1434]	0	
FLKGIVGMLGKLF [DBAASP_8203]	1	
FLPIIAGIAAKFLPKIFCTISKKC [DBAASP_4214]	1	
GLKKIFKAGLGSLVKGIAAHVAS [DBAASP_4408]	0	
FFLLSLIPSAISAIKKI [DBAASP_8438]	0	
GLFGKILGVGKKVLCGLSGMC [DBAASP_2198]	0	
GWLDVAKKKGKAAFNVAKNFI [DBAASP_7674]	0	
GIWDTIKSMGKVFAGAILQNL [DBAASP_700]	1	
FIGAIARLLSKIF [DBAASP_1465]	1	
HFLGTKVNLAKKIL [DBAASP_5020]	0	
ILGKLLKTAAGLLSNL [DBAASP_4361]	1	
VKRWKKWRWKWKKWV [DBAASP_8775]		0
VRRFPYWYPFLRR [DBAASP_14264]	0	
GIMSSLMKKLKKIIAK [DBAASP_8901]		0
ILGKLLSTAAKLLSNL [DBAASP_4362]	1	
KKVLKAAA [DBAASP_7365]	1	
FLKWALKVAAK [DBAASP_16466]	0	
IFGAILPLALGALKNLIK [DBAASP_3892]	1	
FLPLKKLRFGLL [DBAASP_5722]	0	
FLPGLIKAAVGVGSTILCKITKKC [DBAASP_8373]	0	
FLSAITSLLGKLL [DBAASP_4212]	0	
FPVTWPTKWRKG [DBAASP_9717]	0	
FLKGIKGMLGKLL [DBAASP_9112]	0	
VRRFPWYWPFLRR [DBAASP_14260]	0	
KFKKVIWKSFL [DBAASP_13719]	0	

Sequence	Class (dedicated toxicity dataset used for toxicity classifier evaluation) [1]	Class (dedicated toxicity dataset used for toxicity classifier evaluation)
FPVTWKWWKWWKG [DBAASP_7114]	0	
FLSLIPKAISAISALANHF [DBAASP_12627]	0	
ALWKSLLKNVGKA [DBAASP_11806]	0	
GLNALKKVFQGIHEAIKLINKHVQ [DBAASP_6926]	0	
VRRFPAAAPFLRR [DBAASP_14271]	0	
FWGFLGKLAMKAVPSLIGGNKK [DBAASP_8440]	0	
GFKRIVQKIRDFLRNLV [DBAASP_11852]	0	
GLLGPLLKIAAKVGKKLL [DBAASP_4925]	0	
IKKILSKIKKLLK [DBAASP_7154]	0	
GIKDWIKGAAKKLIKTVASHIANQ [DBAASP_2305]	0	
GLLKKIKKLL [DBAASP_7429]	0	
RIWFQNRRMRWRR [DBAASP_8801]	0	
FLPAALAGIGGILGKLF [DBAASP_9469]	0	
KQKLAKLKAKLQKLKQKLAKL [DBAASP_10912]	0	
GVGKFLHSAKKFGQALASEIMKS [DBAASP_3769]	0	
KIAKVALKALKIAKGALKAL [DBAASP_9754]	0	
GVGKFLHSAKKFGQALVSEIMKS [DBAASP_3770]	0	
FLGLLFHGVHHVGKWIHGLIHGHH [DBAASP_1001]	1	
GWRTLLKKAEVKTVGKLALKHYL [DBAASP_1409]	0	
SAVWRWRRFWLRKRK [DBAASP_9989]	0	
WRRRRRRRR [DBAASP_8812]	0	
FLPVIASVAAKVLPKVFCFITKKC [DBAASP_6169]	1	
FFGSVLKLIPKIL [DBAASP_5799]	0	
ILPILGNLLNSLL [DBAASP_3403]	0	
FLPIVTNLLSGLL [DBAASP_2205]	0	

Sequence	Class (dedicated toxicity dataset used for toxicity classifier evaluation) [1]	Class (dedicated toxicity dataset used for toxicity classifier evaluation)
GLVGTLLGHIGKAILG [DBAASP_5369]	0	
FLKGIVGMLGKLW [DBAASP_9113]	1	
GLFDIWAWWRWRR [DBAASP_10051]	0	
GFKDLLKGAAKALVKTVKF [DBAASP_4910]	0	
GVWSTILGGLKKFAKGGLDAIVNPK [DBAASP_5716]	0	
GVVDILKGAAKDIAGHLASKVMNKL [DBAASP_4358]	0	
GLFDVIKKVLKKIGGL [DBAASP_8592]	1	
FIHHAAGGLFSAGKAIHRLIRRRRR [DBAASP_17363]	0	
ITKQITKQLNRQTKIQSK [DBAASP_13427]	0	
KLFKKLFK [DBAASP_17848]	0	
GLFDVIKKLLKKIKGL [DBAASP_8594]	1	
FFPIVGKLLSGLF [DBAASP_1882]	0	
RFCVYAYVRVRGVLVRYRRCF [DBAASP_13515]	0	
FLSLIPHIASGIASLVKNF [DBAASP_12390]	1	
KIAKIAGKIAKIAGKIAKIAGKIA [DBAASP_14995]	1	
KWFKIQLQIKKWKNKK [DBAASP_8806]	0	
ALLKTMLKKLGTMAL [DBAASP_10104]	0	
GIWDTIKSMGKVFAGLILQNL [DBAASP_701]	1	
FLKGIVGKLGKLF [DBAASP_9110]	0	
GLLKWIKTLL [DBAASP_3140]	1	
GIWKTIKSMGKVFAGKIKQNL [DBAASP_703]	0	
GLFDVIKKVASVIGGL [DBAASP_1320]	0	
GFKRIVQRIKDFLRNLV [DBAASP_6070]	0	
GKLSSLWKKLKKIIAK [DBAASP_8915]	0	
FLPGILKVAANVVPGVICAITKKC [DBAASP_16462]	0	
